Results on 1 compound are retold here after paper PMC10250256, “A radiohybrid theranostics ligand labeled with fluorine-18 and lutetium-177 for fibroblast activation protein-targeted imaging and radionuclide therapy” (European Journal of Nuclear Medicine and Molecular Imaging, 2023).

Series [1] is described as follows: in vivo stability in ICR mice, blood samples (radio-HPLC). Here is the method:
[^18F]21 or [^177Lu]21 (50 μCi, 10 μL) was added to PBS (90 μL) or murine serum (90 μL) and the mixture was incubated at 37 °C for a certain time ([^18F]21: 2 h, [^177Lu]21: 8 d). The PBS mixture was injected directly into the radio-HPLC for analysis. The murine serum was precipitated with 0.1 mL of acetonitrile and centrifuged (10,000 rpm, 5 min). The supernatant was measured and analyzed by the radio-HPLC to determine the stability. For in vivo stability study, the radio tracers were injected into the tail vein of ICR mice and samples of blood were collected after a certain time post injection (pi) ([^18F]21: 4 h, [^177Lu]21: 9 h). The plasma proteins were precipitated using an equal volume of acetonitrile and centrifuged (10,000 rpm, 5 min). The RCP of radio tracer in supernatants were analyzed and quantified by radio-HPLC. The radio-HPLC method was as follows: A: 0.1% TFA in H2O, B: ACN, 0–10 min, 0–100% B. The flow rate was 1 mL/min, and the C18 column (4.6 × 150 mm, 5 μm, ZORBAX, Agilent) was used. When using HPLC to assess the stability of [^177Lu]21, the effluent was collected every 30 s due to its less radioactivity, and samples were measured by an automatic γ-counter (2480 Wizard2, Perkin Elmer). The counted samples were plotted as intensity (cpm) against fraction.

Series [2] has as its system HT-1080-FAP cells. Briefly: cell uptake in HT-1080-FAP cells. The series is classed as cell-based, human. The method, then: The human fibrosarcoma cell lines HT-1080 and HT-1080-FAP transferred with human FAP gene were both cultured in Dulbecco modified Eagle medium supplemented with 10% fetal bovine serum (Gibco, USA) at 37℃/5% carbon dioxide. For cell uptake experiments, HT-1080-FAP cells (~ 1 × 10^5/well) or HT-1080 (~ 1 × 10^5/well) were seeded in 24-well plates for 24–48 h and incubated at 37℃ with radiolabeled compounds (74 kBq/well) in 0.5 mL of serum-free medium for indicated times. Non-specific binding was determined by co-incubating with 100 μM FAP inhibitor UAMC1110. For competitive FAP binding assays, HT-1080-FAP cells were incubated with [^177Lu]Lu-FAPI-04 (74 kBq/well) in the presence of different concentrations (10^−3–10^4 nM) of competing non-radioactive ligands. For internalization experiments, the radiotracer-incubated cells were washed twice with PBS (pH 7.4), followed by glycine–HCl (0,05 M, pH = 2.8) solution to distinguish between cell surface–bound (acid-releasable) and internalized (acid-resistant) radioligand. For efflux experiments, cells were preincubated with [^177Lu]21 or [^177Lu]Lu-FAPI-04 for 1 h and subsequently incubated at 37 °C in a medium free of radiotracer and serum for different time periods. The medium was removed and the cells were washed twice with cold PBS (pH 7.4) and subsequently lysed with 0.5 mL of NaOH (1 M). Cell lysates were collected and the radioactivity was determined using a γ-counter.

`CC(C)(C)[Si](F)(c1ccc(C(=O)NCC(NC(=O)CCC(C(=O)O)N2CCN(CC(=O)[O-])CCN(CC(=O)[O-])CCN(CC(=O)[O-])CC2)C(=O)NCC2CCC(C(=O)NCCCOc3ccc4nccc(C(=O)NCC(=O)N5CC(F)(F)CC5C#N)c4c3)CC2)cc1)C(C)(C)C.[177Lu+3]` (centres unmarked) [[^177Lu]21]: the “metabolization in blood samples (radio-HPLC)” value in series [1] (ICR mice, within 9 h pi) was “little evidence of any metabolization”. Further, the in vivo stability in series [1] (as summarised in discussion) is on record as over 90%. Also, the cell uptake in series [2] (1 h incubation) is 72.53% ± 3.43; in series [2] (24 h incubation), 45.06% ± 2.62. Also, in series [2] (co-incubation with 100 μM FAP inhibitor UAMC1110), the “cell uptake with competitor” value is recorded as “could be blocked by FAP inhibitor”.
